Experimental data taken from patent US12582652B2, “3-(ethoxydifluoromethyl)-6-(5-fluoro-6-(2,2,2-trifluoroethoxy)pyridin-3-yl)-[1,2,4]triazolo[4,3-a]pyrazine as an ion channel modulator” (Praxis Precision Medicines, Inc., priority 2022, dated 2026).
pIC50: −log10 of the molar value.

Assays:
Format in all cases: cell-based
hNaV1.1 [1] = biological target: T1, hNaV1.1 (Homo sapiens, UniProt P35498); experiment: Peak INa voltage-dependent block, patch clamp
Description: (§1) Voltage Dependent Block (VDB): VDB protocols used a depolarized voltage to keep channels in half-inactivated (resting) states. This allowed equilibrium binding and accurate determination of isoform selectivity (in the absence of biological features). For each cell, the midpoint of inactivation (V0.5) was determined using a 5,000 ms step to increase voltages (10 mV increments) to inactivate the channel immediately followed by a 2 ms step to 0 mV to maximally activate the channels. The holding potential (Vhold) was −120 mV between steps. The peak INa measured in response to the step to 0 mV was plotted and fitted with a Boltzmann equation to determine the V0.5. This value was then used for the VDB protocol. Pharmacology was measured during peak INa in response to step to 0 mV. No leak subtraction was used.

hNaV1.2 [2] = biological target: T2, hNaV1.2 (Homo sapiens, UniProt Q99250); experiment: Peak INa voltage-dependent block, patch clamp
T2 sequence (Q99250 whole entry): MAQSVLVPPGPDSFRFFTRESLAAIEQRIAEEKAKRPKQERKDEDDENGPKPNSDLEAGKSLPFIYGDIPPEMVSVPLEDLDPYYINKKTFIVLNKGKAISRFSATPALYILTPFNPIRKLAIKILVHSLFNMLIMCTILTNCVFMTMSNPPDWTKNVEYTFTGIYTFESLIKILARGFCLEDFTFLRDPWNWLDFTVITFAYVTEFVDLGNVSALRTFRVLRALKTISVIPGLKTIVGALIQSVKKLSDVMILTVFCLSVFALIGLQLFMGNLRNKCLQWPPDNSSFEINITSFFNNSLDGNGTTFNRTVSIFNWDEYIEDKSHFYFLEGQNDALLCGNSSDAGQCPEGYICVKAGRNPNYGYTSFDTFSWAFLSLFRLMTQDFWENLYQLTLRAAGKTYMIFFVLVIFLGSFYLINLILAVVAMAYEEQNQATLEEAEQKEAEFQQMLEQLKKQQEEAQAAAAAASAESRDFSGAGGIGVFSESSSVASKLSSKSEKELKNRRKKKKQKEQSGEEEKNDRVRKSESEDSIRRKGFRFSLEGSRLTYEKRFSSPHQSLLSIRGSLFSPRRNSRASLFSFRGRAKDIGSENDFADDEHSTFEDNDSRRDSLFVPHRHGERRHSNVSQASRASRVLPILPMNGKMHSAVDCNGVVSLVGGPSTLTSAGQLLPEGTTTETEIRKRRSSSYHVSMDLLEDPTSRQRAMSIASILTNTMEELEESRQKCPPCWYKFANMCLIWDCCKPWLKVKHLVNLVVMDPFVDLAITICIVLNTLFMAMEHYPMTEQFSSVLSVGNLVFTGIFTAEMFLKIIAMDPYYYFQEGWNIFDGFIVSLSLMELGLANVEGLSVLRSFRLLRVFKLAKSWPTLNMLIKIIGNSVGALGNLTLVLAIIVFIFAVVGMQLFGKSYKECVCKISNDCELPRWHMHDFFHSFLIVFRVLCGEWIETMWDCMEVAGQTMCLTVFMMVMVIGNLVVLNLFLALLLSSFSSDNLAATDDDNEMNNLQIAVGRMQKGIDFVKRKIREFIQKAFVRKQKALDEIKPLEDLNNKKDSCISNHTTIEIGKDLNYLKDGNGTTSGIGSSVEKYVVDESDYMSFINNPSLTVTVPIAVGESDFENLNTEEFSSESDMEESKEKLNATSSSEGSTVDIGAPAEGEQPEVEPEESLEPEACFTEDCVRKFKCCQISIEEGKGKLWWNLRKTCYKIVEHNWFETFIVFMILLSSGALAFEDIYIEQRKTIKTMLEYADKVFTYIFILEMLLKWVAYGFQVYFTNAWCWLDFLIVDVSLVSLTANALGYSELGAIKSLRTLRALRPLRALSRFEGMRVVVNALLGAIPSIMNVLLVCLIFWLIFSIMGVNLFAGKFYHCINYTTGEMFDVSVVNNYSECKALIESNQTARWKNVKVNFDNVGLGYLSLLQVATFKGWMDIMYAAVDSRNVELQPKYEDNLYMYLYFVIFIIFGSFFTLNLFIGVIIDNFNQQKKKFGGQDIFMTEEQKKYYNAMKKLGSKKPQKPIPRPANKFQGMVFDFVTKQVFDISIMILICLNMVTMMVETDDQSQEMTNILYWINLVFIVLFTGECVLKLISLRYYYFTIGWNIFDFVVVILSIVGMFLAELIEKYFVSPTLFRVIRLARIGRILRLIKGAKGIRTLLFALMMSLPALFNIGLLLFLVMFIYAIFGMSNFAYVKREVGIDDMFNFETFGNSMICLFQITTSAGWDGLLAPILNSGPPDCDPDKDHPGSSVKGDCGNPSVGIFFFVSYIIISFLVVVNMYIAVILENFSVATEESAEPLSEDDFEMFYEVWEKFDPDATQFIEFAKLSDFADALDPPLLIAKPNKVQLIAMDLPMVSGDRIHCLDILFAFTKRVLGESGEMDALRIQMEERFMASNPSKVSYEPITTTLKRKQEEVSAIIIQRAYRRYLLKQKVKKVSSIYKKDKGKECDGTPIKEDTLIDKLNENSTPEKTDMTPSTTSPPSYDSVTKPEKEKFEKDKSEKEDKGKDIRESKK
Description: as §1

human NaV1.6 = biological target: T3, human NaV1.6 (Homo sapiens, UniProt Q9UQD0); experiment: Peak INa voltage-dependent block (VDB), PatchXpress patch clamp
T3 construct: stably expressing either human NaV1.6 (NP_055006); expressed in transfected cells
Description: HEK-293 cell lines stably expressing either human NaV1.6 (NP_055006), mouse NaV1.6 (NP_035453.2), or rat NaV1.6 (NP_062139) were used. All cells were seeded at 2×10^6 cells per Nunc T75 flask for 2 days in culture. At time of harvest for assays, the cell counts were approximately 6×10^6 cells. Cells were washed (1×) in DPBS (Hyclone, Cat #SH30028.03) for approximately 30 seconds. 1 mL of 1×0.05% Trypsin-EDTA (GIBCO Cat #25300-054) was added and swirled around to cover the bottom of the flask and was allowed to sit on the cells for approximately 4 minutes (±90% of the cells were lifted by light tapping of the flask). 10 mL of warmed media (DMEM high glucose media Hyclone, SH30022.02 supplemented with 10% Fetal Bovine Serum, 2 mM Sodium Pyruvate, 10 mM HEPES and 400 μg/mL G418) was added to inactivate the trypsin. Cells were triturated until a single cell suspension was achieved. A cell count was performed and cells were aliquoted into a 250 ml centrifuge tube at a concentration of 2×10^5/mL in +30 ml of prewarmed media. The 250 mL centrifuge tube was placed on a rocker in an incubator set at 28° C. and gently rocked for approximately 1 hour to allow cells to recover. Cell aliquots of 5 mL (1×10^6 cells) were placed in a 15 mL centrifuge tube and spun at 100×g for 2 minutes. Supernatant was removed leaving a cell pellet. 100 μL of external recording solution was added to the pellet and triturated 20 times to achieve a single cell suspension and then transferred to a 1.5 mL tube for placement in the PatchXpress® (Molecular Devices).
Compound 1 was provided as powder and prepared as 10 mM DMSO stocks in 1 dram glass vials prior to assay. Immediately prior to assay, Compound 1 was diluted with DMSO to 300×, the designated final assay concentration. Assay dilutions (1× concentration) were prepared by pipetting 3 μL of diluted Compound 1 into 897 μL of extracellular solution in a 1 mL glass shell vial. Vials were capped and vortexed until initiation of the PatchXpress® (Molecular Devices) recording protocol.
The same intracellular recording solution was used for the persistent and peak INa assays, which contained: 135 mM CsF, 10 mM CsCl, 5 mM NaCl, 10 mM HEPES, 5 mM EGTA at a pH of 7.4 (adjusted with CsOH) and a measured osmolarity of 298 mOsm (adjusted with mannitol). For the persistent INa assay, the external recording solution contained: 135 mM NaCl, 5.4 mM KCl, 5 mM glucose, 2 mM CaCl2), 1 mM MgCl2, 10 mM HEPES, and 200 nM ATX-II (sea anemone toxin, Alomone Labs; Jerusalem, Israel) at a pH of 7.4 (adjusted with NaOH) and a measured osmolarity of 300 mOsm (adjusted with mannitol). For the peak INa assays, the external recording solution contained: 100 mM NaCl, 35 mM NMDG, 5.4 mM KCl, 5 mM glucose, 2 mM CaCl2), 1 mM MgCl2, and 10 mM HEPES at a pH of 7.4 (adjusted with NaOH) and a measured osmolarity of 300 mOsm (adjusted with mannitol).
All studies were performed using the PatchXpress® (Molecular Devices) automated patch clamp platform (Molecular Devices) using the whole cell configuration. Recordings were performed at room temperature. Data were collected using Patch Commander software (Molecular Devices) and processed using DataXpress 2.0 (Molecular Devices). Cell acceptance criteria were continuously monitored by custom scripts during the recording. Acceptance criteria for all assays were: baseline peak INa>800 pA, Rseal>200 MΩ, and, where appropriate, persistent INa>100 pA. Compensation was 50% and leak subtraction was not used. Currents were filtered at 5 kHz and digitized at 32.5 kHz. Raccess and Rseal were monitored throughout the recording and cells with Raccess>10 MΩ or Rseal<200 MΩ were terminated automatically by script.
Voltage Dependent Block (VDB): VDB protocols used a depolarized voltage to keep channels in half-inactivated (resting) states. This allowed equilibrium binding and accurate determination of isoform selectivity (in the absence of biological features).

hNaV1.1 [3] = biological target: T1, hNaV1.1; experiment: Persistent INa, patch clamp
Description: (§2) Late (persistent) current Block: The inhibition of ATX-II activated late current was measured using a 200 ms voltage step to 0 mV. Protocols used low stimulation rates (about 0.1 Hz) and negative potentials (−120 mV) to keep channels in closed (resting) states. Pharmacology was measured as the mean INa during the final 20 ms of the step to 0 mV and leak subtraction was not used.

hNaV1.5 [4] = biological target: T4, hNaV1.5 (Homo sapiens, UniProt Q14524); experiment: Persistent INa, patch clamp
T4 sequence (Q14524 1-2015 isoform Q14524-2): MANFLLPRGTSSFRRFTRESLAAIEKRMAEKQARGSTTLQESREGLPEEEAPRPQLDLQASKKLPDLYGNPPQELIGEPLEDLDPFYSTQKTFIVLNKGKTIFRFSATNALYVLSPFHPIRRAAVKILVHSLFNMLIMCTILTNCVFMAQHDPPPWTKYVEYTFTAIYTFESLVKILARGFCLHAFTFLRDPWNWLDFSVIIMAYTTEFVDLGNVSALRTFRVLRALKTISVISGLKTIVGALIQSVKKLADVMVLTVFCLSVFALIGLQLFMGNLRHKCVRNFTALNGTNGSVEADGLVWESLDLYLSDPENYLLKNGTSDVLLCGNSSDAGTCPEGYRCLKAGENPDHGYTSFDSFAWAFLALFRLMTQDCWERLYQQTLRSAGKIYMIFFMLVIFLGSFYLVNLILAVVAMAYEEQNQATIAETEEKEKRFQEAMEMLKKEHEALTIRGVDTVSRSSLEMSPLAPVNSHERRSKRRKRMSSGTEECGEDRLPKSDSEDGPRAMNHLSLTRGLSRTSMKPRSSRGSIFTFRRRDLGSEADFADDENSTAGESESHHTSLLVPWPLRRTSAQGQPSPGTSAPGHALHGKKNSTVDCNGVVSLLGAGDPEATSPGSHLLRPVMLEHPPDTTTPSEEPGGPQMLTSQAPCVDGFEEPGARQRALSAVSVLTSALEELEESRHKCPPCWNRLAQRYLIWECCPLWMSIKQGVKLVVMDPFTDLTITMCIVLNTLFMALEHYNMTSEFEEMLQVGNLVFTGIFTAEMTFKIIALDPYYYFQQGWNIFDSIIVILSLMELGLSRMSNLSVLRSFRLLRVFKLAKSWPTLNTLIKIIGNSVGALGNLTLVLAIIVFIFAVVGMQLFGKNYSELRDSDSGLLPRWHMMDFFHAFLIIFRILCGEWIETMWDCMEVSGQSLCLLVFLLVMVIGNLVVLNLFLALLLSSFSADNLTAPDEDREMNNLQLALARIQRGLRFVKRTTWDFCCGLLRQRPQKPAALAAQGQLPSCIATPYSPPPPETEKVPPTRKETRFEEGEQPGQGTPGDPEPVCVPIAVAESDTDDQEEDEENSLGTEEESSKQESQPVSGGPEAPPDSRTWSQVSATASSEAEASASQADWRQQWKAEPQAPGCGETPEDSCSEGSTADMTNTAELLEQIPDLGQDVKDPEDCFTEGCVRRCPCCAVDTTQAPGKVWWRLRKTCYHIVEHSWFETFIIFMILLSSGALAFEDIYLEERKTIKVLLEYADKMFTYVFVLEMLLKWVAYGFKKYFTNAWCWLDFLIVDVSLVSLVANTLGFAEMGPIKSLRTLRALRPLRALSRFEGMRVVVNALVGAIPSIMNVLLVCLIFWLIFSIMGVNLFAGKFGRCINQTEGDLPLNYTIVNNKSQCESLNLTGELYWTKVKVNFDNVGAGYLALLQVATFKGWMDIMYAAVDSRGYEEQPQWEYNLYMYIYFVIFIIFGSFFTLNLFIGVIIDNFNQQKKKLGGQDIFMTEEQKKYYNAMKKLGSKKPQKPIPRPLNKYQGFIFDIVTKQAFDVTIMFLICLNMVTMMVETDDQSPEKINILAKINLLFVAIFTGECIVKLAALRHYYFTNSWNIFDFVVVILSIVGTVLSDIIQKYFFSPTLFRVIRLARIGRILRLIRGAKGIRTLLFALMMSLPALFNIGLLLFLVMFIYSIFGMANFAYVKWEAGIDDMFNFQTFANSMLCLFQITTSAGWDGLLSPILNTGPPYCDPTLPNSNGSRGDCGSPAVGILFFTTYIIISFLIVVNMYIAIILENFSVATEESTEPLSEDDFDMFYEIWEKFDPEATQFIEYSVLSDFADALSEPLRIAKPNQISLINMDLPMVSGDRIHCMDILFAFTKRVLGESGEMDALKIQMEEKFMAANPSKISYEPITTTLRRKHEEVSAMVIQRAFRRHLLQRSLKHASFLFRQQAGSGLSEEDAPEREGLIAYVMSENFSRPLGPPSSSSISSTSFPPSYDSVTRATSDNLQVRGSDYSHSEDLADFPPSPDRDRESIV
Description: as §2

hNaV1.2 [5] = biological target: T2, hNaV1.2; experiment: Persistent INa, patch clamp
Description: as §2

hNaV1.1 [6] = biological target: T1, hNaV1.1; experiment: Peak INa tonic block, patch clamp
Description: (§3) Tonic Block (TB): Tonic Block (TB) protocols used low stimulation rates (about 0.1 Hz) and negative potentials (−120 mV) to keep channels in closed (resting) states. Pharmacology was measured during peak INa in response to step to 0 mV. No leak subtraction was used.

hNaV1.5 [7] = biological target: T4, hNaV1.5; experiment: Peak INa tonic block, patch clamp
Description: as §3

hNaV1.2 [8] = biological target: T2, hNaV1.2; experiment: Peak INa tonic block, patch clamp
Description: as §3

SMILES: CCOC(F)(F)c1nnc2cnc(-c3cnc(OCC(F)(F)F)c(F)c3)cn12 [Compound 1, 3-(ethoxydifluoromethyl)-6-(5-fluoro-6-(2,2,2-trifluoroethoxy)pyridin-3-yl)-[1,2,4]triazolo[4,3-a]pyrazine]
- preference for persistent INa over peak INa voltage-dependent block (hNaV1.1 [1]): 6.3 fold
- preference for persistent INa over peak INa voltage-dependent block (hNaV1.2 [2]): 8.2 fold
- Ratio to Pers. INa (Peak INa VDB / persistent INa) (human NaV1.6; hNaV1.6): 2.2
- pIC50 (human NaV1.6; hNaV1.6, half-inactivated (V1/2)): 6.50
- pIC50 (hNaV1.1 [3]): 6.96
- pIC50 (hNaV1.5 [4]): 6.76
- pIC50 (hNaV1.2 [5]): 6.76
- pIC50 (hNaV1.1 [6]): 4.72
- preference for persistent INa over peak INa tonic block (hNaV1.1 [6]): 173 fold
- preference for persistent INa over peak INa tonic block (hNaV1.5 [7]): > 174 fold
- peak INa tonic block inhibition (hNaV1.5 [7]; at 30 000 nmol/L): 12%
- pIC50 (hNaV1.2 [8]): 4.86
- preference for persistent INa over peak INa tonic block (hNaV1.2 [8]): 80 fold
